Data reported in US10457662B2, “Substituted amides for treating and preventing cancer” (The Regents of the University of Michigan, priority 2015, dated 2019).
Where two headings read alike, the source gives them in different places.

Experiments:
Assay type in all cases: cell-based
Panc-1 = assay: MTT assay, Panc-1; conditions: Homo sapiens
Experimental: Experiments conducted during the course of developing embodiments for the present invention involved performance of a phenotypic screen of a library of 20,000 small-molecules representing five million compounds. […] Subsequently, a lead optimization campaign was performed to synthesize a series of close analogs. Initially, the 50 analogs were tested in three pancreatic cancer cell lines using MTT assay (Table 1).
For in vitro studies, compounds were dissolved in DMSO at 10 mM as stock solutions and stored at −20° C. For in vivo studies, QN523 was dissolved in a vehicle containing 5% DMSO, 35% propylene glycol and 60% saline, and administered at 100 uL through intraperitoneal injections.

Hep3B = assay: MTT assay, Hep3B; conditions: Homo sapiens, HCC cell line
Experimental: (§1) In order to understand its potential selectivity for different types of cancer and choose the best model for further characterization, QN523 was tested in a panel of 12 cancer cell lines with various genetic and pathological backgrounds (Table 2). […] Because of remarkable potency of QN-523 in pancreatic cancer in-depth preclinical studies in this disease model were performed.

[1] = tested on: panel of 12 cancer cell lines; assay: MTT assay, panel of 12 cancer cell lines; conditions: range over the panel; read-out: IC50 values across all 12 cell lines
Experimental: as §1

[2] = tested on: WIPI1, GABARAPL1 and LC3B; assay: Western blotting of autophagy related proteins in MiaPaCa-2
Experimental: FIG. 12: QN523 induces protein expression of autophagy markers dose-dependently.
Significant induction of the protein was detected at concentrations as low as 0.25 μM.
In addition, primary antibodies for LC3B, survivin, cyclin D1, Stat3 and phosphorylated Stat3 (Y705) are from Cell Signaling Technology.

Ovcar 8 = assay: MTT assay, Ovcar 8; conditions: Homo sapiens
Experimental: as §1

HCT116 p53+/+ = assay: MTT assay, HCT116 p53+/+; conditions: Homo sapiens, HCT-116, MTT assay; colorectal cancer cell line
Experimental: as §1

HepG2 = assay: MTT assay, HepG2; conditions: Homo sapiens, HCC cell line
Experimental: as §1

MiaPaCa-2 cells = assay: Bru-seq analysis of RNA synthesis in MiaPaCa-2; conditions: 1 μM
Experimental: In order to understand the mechanism of action for QN523 in pancreatic cancer, Bru-seq was performed to evaluate global changes in gene synthesis after QN523 treatment. […] During this time, the cells begin initiating cascade of pharmacological events unique to these compounds. However, cell death pathways will be initiated at later time points well beyond 24 hrs. Therefore, the Bru-seq experiments were performed after 24 hrs drug (1 μM) exposure. Using RPKM>0.5, gene size >300 bp as the cut off values to eliminate background noises, there were totally 8521 expressed genes in the QN523 and DMSO control samples out of around 22,000 genes in the reference genome.
Bru-seq data from QN523 treatment (1 uM, 24 h) and vehicle controls in MiaPaCa-2 was processed by filtering for genes with RPKM>0.5, gene size >300 bp. Expressed genes were then preranked according to fold change comparing to control and subjected to analysis.

Jurkat = assay: MTT assay, Jurkat; conditions: Homo sapiens, leukemia cell line
Experimental: as §1

SNU449 = assay: MTT assay, SNU449; conditions: Homo sapiens, SNU-449, HCC cell line
Experimental: as §1

SMILES: O=C(Nc1cccc2cccnc12)c1cnccn1 [QN523, Pyrazine-2-carboxylic acid quinolin-8-ylamide]
- IC50 (Panc-1; PANC-1, read-out: IC50 Panc-1): 500 nM
- IC50 (Panc-1; PANC-1, read-out: IC50 Values Panc-1): 500 ± 70 nM
- IC50 (Hep3B): 210 nM
- IC50 [1]: 100 to 5700 nM
- lowest concentration with significant induction of WIPI1 protein ([2]; 72 h): 0.25 µM
- autophagy-related markers WIPI1, GABARAPL1 and LC3B ([2]; 72 h treatment, western blotting): Accumulation
- IC50 (Ovcar 8): 300 nM
- IC50 (HCT116 p53+/+): ~100 nM
- IC50 (HepG2): 500 nM
- number of genes downregulated (MiaPaCa-2 cells; 24 h, of 8521 expressed genes): 123 genes
- number of genes upregulated more than two fold (MiaPaCa-2 cells; 24 h, of 8521 expressed genes): 275 genes
- Fold Change ATF3 (MiaPaCa-2 cells; RNA synthesis, 24 h vs control): 22.1 fold
- Fold Change AURKAIP1 (MiaPaCa-2 cells; RNA synthesis, 24 h vs control): −2.3 fold
- Fold Change C9orf140 (MiaPaCa-2 cells; RNA synthesis, 24 h vs control): −2.5 fold
- Fold Change C17orf62 (MiaPaCa-2 cells; RNA synthesis, 24 h vs control): −2.5 fold
- Fold Change C19orf60 (MiaPaCa-2 cells; RNA synthesis, 24 h vs control): −2.3 fold
- Fold Change C19orf76 (MiaPaCa-2 cells; RNA synthesis, 24 h vs control): −2.3 fold
- Fold Change CCDC85C (MiaPaCa-2 cells; RNA synthesis, 24 h vs control): −2.4 fold
- Fold Change CCNG2 (MiaPaCa-2 cells; RNA synthesis, 24 h vs control): 6.6 fold
- Fold Change CD55 (MiaPaCa-2 cells; RNA synthesis, 24 h vs control): 6.3 fold
- Fold Change CXCL3 (MiaPaCa-2 cells; RNA synthesis, 24 h vs control): 11.1 fold
- Fold Change DDIT3 (MiaPaCa-2 cells; RNA synthesis, 24 h vs control): 10.7 fold
- Fold Change DNAJB9 (MiaPaCa-2 cells; RNA synthesis, 24 h vs control): 7.8 fold
- Fold Change FAM129A (MiaPaCa-2 cells; RNA synthesis, 24 h vs control): 16.0 fold
- Fold Change FASN (MiaPaCa-2 cells; RNA synthesis, 24 h vs control): −2.4 fold
- Fold Change GABARAPL1 (MiaPaCa-2 cells; RNA synthesis, 24 h vs control): 8.2 fold
- Fold Change HERPUD1 (MiaPaCa-2 cells; RNA synthesis, 24 h vs control): 10.0 fold
- Fold Change HMOX1 (MiaPaCa-2 cells; RNA synthesis, 24 h vs control): 13.6 fold
- Fold Change HPDL (MiaPaCa-2 cells; RNA synthesis, 24 h vs control): −2.4 fold
- Fold Change HSPA5 (MiaPaCa-2 cells; RNA synthesis, 24 h vs control): 7.9 fold
- Fold Change LOC344887 (MiaPaCa-2 cells; RNA synthesis, 24 h vs control): 16.7 fold
- Fold Change MAP1LC3B (MiaPaCa-2 cells; RNA synthesis, 24 h vs control): 6.9 fold
- Fold Change MXD3 (MiaPaCa-2 cells; RNA synthesis, 24 h vs control): −2.3 fold
- Fold Change NAT14 (MiaPaCa-2 cells; RNA synthesis, 24 h vs control): −2.4 fold
- Fold Change OSGIN1 (MiaPaCa-2 cells; RNA synthesis, 24 h vs control): 8.0 fold
- Fold Change PRKCDBP (MiaPaCa-2 cells; RNA synthesis, 24 h vs control): −2.3 fold
- Fold Change RANGRF (MiaPaCa-2 cells; RNA synthesis, 24 h vs control): −2.3 fold
- Fold Change RNASEH2C (MiaPaCa-2 cells; RNA synthesis, 24 h vs control): −2.3 fold
- Fold Change RPL23AP32 (MiaPaCa-2 cells; RNA synthesis, 24 h vs control): −2.3 fold
- Fold Change SAT1 (MiaPaCa-2 cells; RNA synthesis, 24 h vs control): 7.2 fold
- Fold Change SCARNA10 (MiaPaCa-2 cells; RNA synthesis, 24 h vs control): −2.4 fold
- Fold Change SEMA6B (MiaPaCa-2 cells; RNA synthesis, 24 h vs control): −2.4 fold
- Fold Change SLC37A4 (MiaPaCa-2 cells; RNA synthesis, 24 h vs control): −2.3 fold
- Fold Change SLFN5 (MiaPaCa-2 cells; RNA synthesis, 24 h vs control): 10.1 fold
- Fold Change TERC (MiaPaCa-2 cells; RNA synthesis, 24 h vs control): −2.4 fold
- Fold Change THAP11 (MiaPaCa-2 cells; RNA synthesis, 24 h vs control): −2.5 fold
- Fold Change TRIB3 (MiaPaCa-2 cells; RNA synthesis, 24 h vs control): 14.3 fold
- Fold Change UPP1 (MiaPaCa-2 cells; RNA synthesis, 24 h vs control): 18.4 fold
- Fold Change WIPI1 (MiaPaCa-2 cells; RNA synthesis, 24 h vs control): 15.3 fold
- Fold Change ZDHHC12 (MiaPaCa-2 cells; RNA synthesis, 24 h vs control): −2.4 fold
- IC50 (Jurkat): ~100 nM
- IC50 (SNU449): 400 nM
